The test system of assay [1] is Smad2. The experiment in a line: Smad2 phosphorylation (western blot) in HFL1 cells. Type of assay: cell-based, human. As to conditions: for phosphorylation level of Smad2 (ROCK pathway): Y27632 20 μM, Cytochalasin B 2 μM; for phosphorylation level of Smad2 (ROCK pathway) / phosphorylation level of Smad2 due to TGFβ1 treatment (PKC inhibitors): TGFβ1 10 ng/mL; for phosphorylation level of Smad2 due to TGFβ1 treatment (PKC inhibitors): GF109203X 10 μM, Rottlerin 1 μM. (In general: A western blot detects proteins with antibodies after separation by electrophoresis.)
Procedure: HFL1 cells were inoculated onto a six-well plate by 1.0×10^5 cells/well, and then cultured in 2.0 mL of DMEM containing 10% FBS, to achieve 70% confluence. The cells were washed using Hanks' balanced salt solution (HBSS) containing 0.1% bovine serum albumin (BSA) (4.2 mM NaHCO3, 137 mM NaCl, 5.36 mM KCl, 0.4 mM MgSO4.7H2O, 0.34 mM Na2HPO4.12H2O, 5.55 mM glucose, 0.44 mM KH2PO4, 0.72 mM CaCl2.H2O, pH=7.4), and then cultured in a DMEM containing 0.1% BSA for 48 hours without serum.
Thereafter, the medium was replaced by a DMEM containing 0.1% BSA, and stimulation was given for a specified period using each reagent (each inhibitor was applied 30 minutes before the stimulant), after which the cells were collected on ice using 100 μL of RIPA buffer (150 mM NaCl, 50 mM Tris-HCl, 5 mM EDTA, 5 mM NaF, 10 mM sodium pyrophosphate dibasic, 1% Nonidet P-40, 0.1% sodium dodecyl sulfate, 0.5% sodium deoxycholate, pH 8.0) containing 10 μg/mL aprotinin, 10 μg/mL leupeptin, and phenyl methyl sulfonyl fluoride (PMSF) as a protease inhibitor.
The cells were crushed according to the vortex method, centrifuged under the conditions of 15000 rpm and 4° C. for 30 minutes, and the supernatant was taken as a sample. Quantitative determination of protein was performed according to the Bradford method, and a specified amount of protein was separated by SDS-polyacrylic amide gel electrophoresis. The protein was transferred onto a polyvinylidene difluoride (PVDF) film, blocked for 1 hour at room temperature, with a primary antibody applied overnight at 4° C., and a secondary antibody applied for 1 hour at room temperature.
Thereafter, the PVDF film was soaked in an ECL solution and fluorometric detection was performed using an image capture/analysis system (ChemiDocMP System manufactured by Bio-Rad). The detected bands were converted to numerical values using image processing software (ImageJ).

Another assay relates to αSMA. The experiment in a line: αSMA expression (western blot) in TGFβ1-stimulated HFL1 cells. Type of assay: cell-based, human. The conditions noted are these: for increase in the αSMA expression level due to TGFβ1 (PKC inhibitors): GF109203X 10 μM, Rottlerin 1 μM, GO06976 0.5 μM and 1.0 μM, 30 minutes before TGFβ1 10 ng/mL; for αSMA expression level recovered, relative to the level when TGFβ1 alone was applied: used together with PPMP (3 μM), lactosylceramide 10 μM. On the procedure: Human pulmonary fibroblast (HFL1) (ATCC CCL-153) cells were cultured under the conditions of 95% air-5% CO2 and 37° C., using a Dulbecco's Modified Eagle Medium (DMEM) containing 10% fetal bovine serum (FBS), 100 μg/mL streptomycin, and 66.7 μg/mL penicillin.
How an increase in lactosylceramide synthesis activity due to TGFβ1 affects the fibrosing of tissues was examined based on the expression level of αSMA, which is a fibrosing marker protein.

Assay [2] relates to Smad2. Put plainly: Smad2 nuclear localization (immunofluorescent staining, confocal) in HFL1 cells. The conditions noted are these: TGFβ1 10 ng/mL; for nuclear localization of Smad2 due to TGFβ1 (PKC inhibitors): GF109203X 10 μM, Rottlerin 1 μM, GO06976 1 μM. It is filed as cell-based, human. How it is done:
For immunostaining of Smad and phosphorylated Smad, ribonuclease A (RNase, Worthington Biochemical) (200 μg/mL, room temperature, 30 minutes) and propidium iodide (PI, Cayman Chemical) (20 μg/mL, room temperature, 30 minutes) were applied to stain the nucleus, and the stained images were observed using a confocal microscope (FV500 manufactured by Olympus).
When localization of Smad2/3 was observed, on the other hand, Smad2/3 accumulated in the nucleus in 3 hours after the single stimulation of TGFβ1 (10 ng/mL).

The test system of another assay is PKCδ. The experiment in a line: Translocation of PKCδ into the cellular membrane in HFL1 cells. It is filed as cell-based, human. How it is done:
HFL1 cells were inoculated onto a 3.5-cm glass-bottom dish by 1.0×10^4 cells/dish, and then cultured in 2.0 mL of DMEM containing 10% FBS, to achieve 70% confluence. The cells were washed in HBSS containing 0.1% BSA, and then cultured in DMEM containing 0.1% BSA for 48 hours without serum.
Thereafter, the medium was replaced by a DMEM containing 0.1% BSA, and stimulation was given for a specified period using each reagent (each inhibitor was applied 30 minutes before the stimulant), after which each sample was fixed with 4% paraformaldehyde (PFA) at 4° C. for 15 minutes. Thereafter, as deemed appropriate, the sample was permeabilized (0.3% saponin, room temperature, 1 hour) and blocked (3% BSA, room temperature, 1 hour), with a primary antibody applied overnight at 4° C., and a secondary antibody applied for 1 hour at room temperature. For immunostaining of Smad and phosphorylated Smad, ribonuclease A (RNase, Worthington Biochemical) (200 μg/mL, room temperature, 30 minutes) and propidium iodide (PI, Cayman Chemical) (20 μg/mL, room temperature, 30 minutes) were applied to stain the nucleus, and the stained images were observed using a confocal microscope (FV500 manufactured by Olympus).
In general, activation of PKC is observed in the form of its translocation into the cellular membrane; accordingly, involvement of lactosylceramide was examined using the translocation of PKCδ into the cellular membrane as an indicator.

For assay [3], the system named is idiopathic pulmonary fibrosis. The conditions noted are these: patients suffering from idiopathic pulmonary fibrosis; Non-patent Literature 2; cited from earlier work.

We go through ten molecules from patent US20200061038A1, “THERAPEUTIC AGENT FOR FIBROSIS AND INHIBITOR OF NUCLEAR TRANSLOCATION OF PHOSPHORYLATED SMAD” (NATIONAL UNIVERSITY CORPORATION CHIBA UNIVERSITY, priority 2016, published 2020).

Take `C=C1[C@@H](C)[C@H]2[C@H](Cc3ccccc3)NC(=O)[C@]23OC(=O)/C=C/[C@H](O)CCC[C@@H](C)C/C=C/[C@H]3[C@@H]1O` [Cytochalasin B]: the “phosphorylation level of Smad2 (ROCK pathway)” value in the assay with Smad2 [1] is “the phosphorylation level did not change”.

In the case of `CN(C)CCCn1cc(C2=C(c3c[nH]c4ccccc34)C(=O)NC2=O)c2ccccc21` [GF109203X], the “increase in the αSMA expression level due to TGFβ1 (PKC inhibitors)” value (“increase … (PKC inhibitors)” for short) with αSMA is “suppressed significantly”. The “nuclear localization of Smad2 due to TGFβ1 (PKC inhibitors)” value (“nuclear localization … (PKC inhibitors)” below) in the assay on Smad2 [2] is reported as “suppressed significantly”. The “phosphorylation level of Smad2 due to TGFβ1 treatment (PKC inhibitors)” value in the assay on Smad2 [1] is “no change was observed”.

Regarding `Cn1c2ccccc2c2c3c(c4c5ccccc5n(CCC#N)c4c21)CNC3=O` [GO06976], the “increase … (PKC inhibitors)” value in the assay with αSMA was “did not suppress the increase in the αSMA expression level”. The “nuclear localization … (PKC inhibitors)” value with Smad2 [2] is given as “did not change”.

Turning to `CCCCCCCCCCCCCC(=O)O[C@@H]1[C@@H](C)[C@@]2(O)[C@@H](C=C(CO)C[C@]3(O)C(=O)C(C)=C[C@@H]23)[C@@H]2C(C)(C)[C@]12OC(C)=O` [PMA, phorbol myristate acetate], the “increase in the αSMA expression level due to TGFβ1 (PKC down-regulation)” value with αSMA (PMA 100 nM overnight treatment, TGFβ1 10 ng/mL) is “suppressed the increase in the αSMA expression level”.

Consider `CC(=O)c1c(O)c(C)c(O)c(Cc2c(O)c3c(c(C(=O)/C=C/c4ccccc4)c2O)OC(C)(C)C=C3)c1O` [Rottlerin], for which the “translocation of PKCδ into the cellular membrane due to TGFβ1” value with PKCδ (PPMP 3 μM, Rottlerin 1 μM applied beforehand, two hours after TGFβ1 10 ng/mL) is listed as “translocation of PKCδ into the cellular membrane was suppressed”. Besides, in the assay on αSMA, the “increase … (PKC inhibitors)” value is listed as “suppressed significantly”. Further, the “nuclear localization … (PKC inhibitors)” value in the assay on Smad2 [2] is “suppressed significantly”. Besides, in the assay on Smad2 [1], the “phosphorylation level of Smad2 due to TGFβ1 treatment (PKC inhibitors)” value is given as “no change was observed”.

In the case of `C[C@@H](N)[C@H]1CC[C@H](C(=O)Nc2ccncc2)CC1` [Y27632], in the assay on Smad2 [1], the “phosphorylation level of Smad2 (ROCK pathway)” value was “the phosphorylation level did not change”.

As to `COC(=O)c1ccc2c(c1)NC(=O)/C2=C(\Nc1ccc(N(C)C(=O)CN2CCN(C)CC2)cc1)c1ccccc1` [nintedanib], in assay [3], the “forced vital capacities of patients” value is reported as “improve the forced vital capacities” and the “survival periods of patients” value is on record as “cannot extend the survival periods”.

Regarding `Cc1ccc(=O)n(-c2ccccc2)c1` [pirfenidone], in assay [3], the “forced vital capacities of patients” value is reported as “improve the forced vital capacities” and the “survival periods of patients” value is reported as “cannot extend the survival periods”.

For the molecule glucosylceramide, the “αSMA expression level recovered, relative to the level when TGFβ1 alone was applied” value in the assay on αSMA (TGFβ1 10 ng/mL) was “approx. 80%”.

Turning to lactosylceramide, in the assay on PKCδ (lactosylceramide 10 μM alone), the “time the localization of PKCδ on the cellular membrane was sustained” value is reported as “at least 30 minutes”. The “translocation of PKCδ into the cellular membrane by the substance alone” value with PKCδ (lactosylceramide 10 μM alone, five minutes after the stimulation) is given as “translocation of PKCδ into the cellular membrane was observed”. The “recovery of the αSMA expression level suppression action” value with αSMA (lactosylceramide 10 μM in combined use with PPMP or NB-DNJ, TGFβ1 10 ng/mL) is “led to a recovery of the αSMA expression level suppression action”. Further, the “αSMA expression level recovered, relative to the level when TGFβ1 alone was applied” value in the assay on αSMA (TGFβ1 10 ng/mL) was “approx. 95%”. For the same molecule, in the assay with Smad2 [2] (lactosylceramide 10 μM combined with PPMP), the “accumulation of Smad2 in the nucleus, combined use with PPMP” value was “led to a recovery of the suppression action due to PPMP, and Smad2 accumulated in the nucleus”. Further, in the assay with Smad2 [1] (lactosylceramide 10 μM alone, no TGFβ1), the “phosphorylation of Smad2 by the substance alone” value is “did not cause phosphorylation of Smad2”.
